Series [1] is described as follows: pH of the skin surface underneath the system after 5 days' wearing, surface pH electrode (FIG. 6). It is filed as in vivo, human. To be noted: in the polymethacrylate matrix. From the text:
The systems tested differ in their concentration of citric acid in the polymethacrylate matrix. It is clear that only a citric acid concentration of more than 1% can bring about any significant change in the surface pH of the skin. The words "values 1, 2 and 3" in FIG. 7 refer to test subjects.

A short description of series [2]: Permeability of pH-modified clenbuterol CPA through human skin (Franz cell release apparatus). In kind it is in vitro ADME. The protocol: Permeability of pH-modified clenbuterol CPA through human skin:
Composition of the CPA's:
Polymethacrylate 90% 90%
A Franz cell was used as the release apparatus. This is a conventional method of testing the release of drugs from pharmaceutical formulations. Samples were taken after 24 hours and 48 hours and the clenbuterol content was determined.

The nature of series [3]: Flux rate of clenbuterol through human skin depending on pH (FIG. 9). In kind it is in vitro ADME. To be noted: pH range 6.0 to 8.5 versus higher and lower pH. From the text:
The flux rate of an active substance through the skin is defined as the quantity of active substance per unit of area of the skin and per unit of time and is normally given in [μg/cm^2.h].
Curve B illustrates the water solubility of the substance depending on the pH value [mg/ml]. […] (The right-hand ordinate in FIG. 9 is shown logarithmically). [μg/cm^2. h]

The conditions of series [4]: transdermal administration, prior practice; cited from earlier work.

Each structure is given as a SMILES string. “And” between values parts separate entries of the source, which are not always exact repeats. Identical values can stand only once. “Also recorded” adds a separate entry of the source.

These results are taken from patent publication US5462744A, “Transdermal system for the administration of pharmacological compounds under pH-controlled conditions” (Boehringer Ingelheim KG, priority 1990, dated 1995).

For the compound `O=C(O)CC(O)(CC(=O)O)C(=O)O` [Citric acid, citric acid], the “citric acid concentration that brings about significant change in the surface pH of the skin” value in series [1] is on record as “more than 1%”.
Consider `CC(C)(C)NCC(O)c1cc(Cl)c(N)c(Cl)c1` (stereo not drawn) [Clenbuterol], for which the “diffusion rate, alkaline versus acid pH” value in series [2] (pH 10.0 vs pH 3.5) was “a higher diffusion rate is found at an alkaline pH than at an acid pH”. The “Clenbuterol Diffusion after 24 hours” value in series [2] (pH-value 10.0 (5% Na2CO3), 24 hours, 5% clenbuterol in polymethacrylate) is 7.8 μg/cm^2 and 11.44 μg/cm^2 and 9.84 μg/cm^2. For the same compound, the “Clenbuterol Diffusion after 48 hours” value in series [2] (pH-value 10.0 (5% Na2CO3), 48 hours, 5% clenbuterol in polymethacrylate) was 21.7 μg/cm^2 and 27.3 μg/cm^2 and 24.2 μg/cm^2. In addition, the “flux rate depending on pH” value in series [3] was “reaches a maximum in the pH range specified above, but decreases sharply at higher and lower pH levels; also recorded: reduced drastically outside the pH range specified”. For the same compound, the “constancy of blood level values” in series [4] was “has not hitherto resulted in constant blood level values”.
